Experimental data from patent US20130014428A1, “METHODS OF MONITORING AND CONTROLLING THE WALNUT TWIG BEETLE, PITYOPHTHORUS JUGLANDIS” (The United States of America as Represented by the …, priority 2011, published 2013).

Legend:
[1] = tested on: walnut twig beetle (WTB), Pityophthorus juglandis; assay: Example 1 Field Test 3: flight response to X with and without enantiomers of trans-conophthorin; assay type: in vivo; settings: yellow sticky card traps, Pleasanton CA
Description: (§1) Field Bioassays of Semiochemicals. To test the attractiveness of the various compounds of interest, some of the commercially available materials listed above were poured into 15 ml capped polyethylene bottles (Product #s A1-1050/002, A1-1055/002; Contech Enterprises Inc., Delta, British Columbia, Canada) and attached to yellow sticky card traps (Trécé, Adair, OK). In addition, synthesized (+) and (−) enantiomers of trans-conophthorin were tested in 400 μl polyethylene Eppendorf microcentrifuge tubes. Four field studies were conducted (Table 2) that tested the flight responses to: 3-methyl-2-buten-l-ol and related isomers (Field Test 1); 3-methyl-2-buten-l-ol with and without racemic trans-conophthorin (Field Test 2); 3-methyl-2-buten-l-ol with and without the purified enantiomers of trans-conophthorin (Field Test 3); and 3-methyl-2-buten-l-ol with and without racemic chalcogran (Field Test 4).
(§2) Statistical Analysis. Field Tests 1-4 were each analyzed for treatment effect by using Friedman's non-parametric analysis of variance. (See Zar, J. H. 2010. Biostatistical Analysis, 5th Ed. Pearson Prentice Hall, New Jersey). Males and females were subjected to separate analyses. All treatments within experiments yielding a significant treatment effect were compared by using an a posteriori Nemenyi test (Zar 2010) with experimentwise α=0.05. Sex ratios of responding WTB were determined using Cochran's method for unbiased sampling (See Cochran, W. G. 1977. Sampling Techniques, 3rd ed. John Wiley, New York), with 95% confidence intervals calculated by using the Clopper-Pearson method. (See Zar, J. H. 2010. Biostatistical Analysis, 5th Ed. Pearson Prentice Hall, New Jersey).

[2] = tested on: walnut twig beetle (WTB), Pityophthorus juglandis; assay: Example 1 Field Test 2: flight response to X with and without racemic conophthorin; assay type: in vivo; settings: yellow sticky card traps, Davis CA
Description: as §1, §2

WTB [3] = assay: Example 2 Field Test 2: X in combination with DMNT, vittatol, rose oxides; assay type: in vivo, Pityophthorus juglandis; design: trap catches, male WTB / trap catches, female WTB: dose or concentration left out as unconfirmed; settings: 4-unit Lindgren funnel traps
Description: At the same time and location, the flight response of WTB to 3-methyl-2-buten-1-ol ([…], Contech) was tested in combination with each of the following compounds: DMNT [4,8-dimethyl-1,3(E),7-nonatriene], vittatol [(3R,6R)-3-hydroxy-2,2,6-trimethyltetrahydropyran], (−)- and (+)-rose oxide [tetrahydro-4-methyl-2-(2-methylpropenyl)-2H-pyran] (Table 3, Field Test 2). DMNT and vittatol were synthesized and provided by Prof. Wittko Francke, University of Hamburg, Institute of Organic Chemistry; whereas (−)-rose oxide (>99% chemical purity, product #83917-1 ML, Fluka, Milwaukee, Wis.) and (+)-rose oxide (>99% chemical purity, product #83915-1 ML, Fluka) were purchased. The compounds besides 3-methyl-2-buten-1-ol were released from closed 400 μl Eppendorf microcentrifuge tubes (Evergreen) with loads of approximately 50 μl (DMNT); 20 mg (vittatol, solid at room temperature); and approx. 200 μl each of (−)-and (+)-rose oxide. The six treatments were replicated in three spatial blocks and the treatments were re-randomized among the six trap stations in a block each time the traps were emptied (nearly every day).
Statistical Analyses. Analysis of treatment effects for the pouch vs. bottle experiment was done by using a sign test. (See Zar, J. H. 2010. Biostatistical Analysis. 5th ed. Pearson Prentice Hall, Englewood Cliffs, N.J.) The other four experiments were analyzed for treatment effect by using Friedman's non-parametric analysis of variance. Id. In all experiments, males and females were analyzed separately. All treatments within experiments yielding a significant treatment effect were compared by using an a posteriori Nemenyi test with experimentwise α=0.05. Id. For all experiments, differences among proportions of female WTB responding to treatments were analyzed by comparing 95% confidence intervals determined with the Clopper-Pearson method. Id.

WTB [4] = assay: Trap height: 4-unit Lindgren funnel traps baited with X; assay type: in vivo, Pityophthorus juglandis; settings: for trap catches, female WTB / trap catches, male WTB: 15 to 80 mg/d
Description: In another experiment, the effect of trap height on the flight response of WTB was also tested with 4-unit Lindgren funnel traps at Wolfskill Experimental Orchards from late summer to early fall. The traps were each baited with the commercial version of 3-methyl-2-buten-1-ol (15 to 80 mg/d, Contech pouch) and placed at 45, 123, 199, and 271 cm (hereafter 0.5, 1.2, 2.0, and 2.7 m) from the orchard floor (measured from the floor to the middle of the trap). Traps were attached to individual 3 m metal conduit poles by using a thick piece of wire threaded through a hole drilled in the conduit pole and the eyebolt attached to the top of the funnel trap. (See Seybold, S. J., Dallara, P. L., Hishinuma, S. M., and Flint, M. L. Detecting and Identifying the Walnut Twig Beetle: Monitoring Guidelines for the Invasive Vector of Thousand Cankers Disease of Walnut, University of California Agriculture and Natural Resources, Statewide Integrated Pest Management Program, 11 pp., Apr. 30, 2012.) Three blocks of treatments were installed, trap catches were collected daily during periods of high flight activity, and the treatments were re-randomized among the four trap stations within a block each time that the traps were emptied.
Statistical Analyses. Analyses of treatment effects for the tests of trap type were performed by using Friedman's non-parametric analysis of variance or a sign test, depending on the number of treatments. (See Zar, J. H. 2010. Biostatistical Analysis. 5th ed. Pearson Prentice Hall, Englewood Cliffs, N.J.) Analysis of treatment effects for the Rain•X experiment was performed by using a Wilcoxon paired sample test. Id. Multiple comparisons for experiments with more than two treatments were performed with an a posteriori Nemenyi test with experimentwise α=0.05. Id. In all cases, male and female WTB were analyzed separately. Proportions of female WTB responding to treatments were calculated and 95% confidence intervals determined by using the Clopper-Pearson method. Id.

[5] = about one month late spring, N=16

## CC(C)=CCO [X, 3-methyl-2-buten-1-ol]
[1]
  proportion of females responding: 0.80
[1]; about one month in fall, N=15
  trap catches, female WTB: 47
  trap catches, male WTB: 12
[2]
  proportion of females responding: 0.65
[2]; [5]
  trap catches, female WTB: 459
  trap catches, male WTB: 250
WTB [3]
  proportion of females responding: 0.70
WTB [3]; N=42
  trap catches, female WTB: 100
  trap catches, male WTB: 43
WTB [4]; 0.5 m trap
  proportion of females responding: 0.76
  trap catches, female WTB: 392
  trap catches, male WTB: 125
WTB [4]; 1.2 m trap
  proportion of females responding: 0.77
  trap catches, female WTB: 469
  trap catches, male WTB: 139
WTB [4]; 2.0 m trap
  proportion of females responding: 0.77
  trap catches, female WTB: 875
  trap catches, male WTB: 265
WTB [4]; 2.7 m trap
  proportion of females responding: 0.77
  trap catches, female WTB: 757
  trap catches, male WTB: 225
